Experiments:
[1] = tested on: neutrophils, classical and non-classical monocytes; experiment: Flow cytometric analysis of myeloid blood cell compartment of colonized mice; assay type: in vivo; settings: Abx-treated mice, 4 weeks colonized
Source text: FIGS. 4A-4F include graphs showing humoral and cellular immune responses to C. albicans and Kazachstania sp. (4A) Flow cytometric analysis of myeloid blood cell compartment of mice 4 weeks colonized with C. albicans or K. weizmannii. Neutrophils, classical and non-classical monocytes are defined as Ly6G+CD 115−, Ly6C+CD 115+, and […], respectively. N=8-21 mice, pooled from 3 independent experiments. Gating strategy, left, results, right. (4B) Flow cytometric analysis of humoral anti-fungal reactivity. Gating strategy for the determination of serum immunoglobulin binding to cultured C. albicans or K. weizmannii. (4C) Anti-C. albicans and K. weizmannii IgA and IgG serum reactivity of single-colonized animals, measured as shown in (4B). Note that most but not all animals harbor cross-reactive sera. (4D) Representative gating strategy of RORγt+ T cells (left); percentage of RORγt+ cells among TCRβ CD4+ T cells 5 weeks upon C. albicans or K. weizmannii colonization, n=3-5 mice per group, 3 independent experiments (right). […] EC damage was assessed using the LDH assay as described in (Allert et al., 2018). […]
Methods adhered to published guidelines (Cossarizza et al., 2019). Flow cytometry samples were recorded on BD LSR Fortessa 4 lasers or Cytek Aurora followed by data analysis using the FlowJo software (Treestar).

CD4+ T cells in PBMCs = experiment: Antigen-reactive T cell enrichment (ARTE); assay type: cell-based, human; settings: peripheral blood of healthy individuals, 40 μg/ml fungal lysates
Method: PBMCs were freshly isolated from EDTA blood samples on the day of blood donation by density gradient centrifugation (Biocoll; Biochrom, Berlin, Germany). Antigen-reactive T cell enrichment (ARTE) was performed as follows. Briefly, 2×10e^7 PBMCs were plated in RPMI-1640 medium (GIBCO), supplemented with 5% (v/v) human AB-serum (Sigma Aldrich, Schnelldorf, Germany) at a cell density of 1×10e^7 PBMCs/2 cm^2 in cell culture plates and stimulated with 40 μg/ml fungal lysates for 7 hr in presence of 1 μg/ml CD40 and 1 μg/ml CD28 pure antibody (both Miltenyi Biotec, Bergisch Gladbach, Germany). 1 μg/ml Brefeldin A (Sigma Aldrich) was added for the last 2 hr. Cells were labeled with CD154-Biotin followed by anti-Biotin MicroBeads (CD154 MicroBead Kit; Miltenyi Biotec) and magnetically enriched by two sequential MS columns (Miltenyi Biotec). Surface staining was performed on the first column, followed by fixation, permeabilization (Inside stain Kit, Miltenyi Biotec) and intracellular staining on the second column. […]
Frequencies of antigen-specific T cells were determined based on the total cell count of CD154+ T cells after enrichment, normalized to the total number of CD4+ T cells applied on the column. […]

C. albicans = experiment: Candidiasis in immunosuppressed C. albicans-colonized mice given Kazachstania-supplemented drinking water; assay type: in vivo
Method: Stably fungal-colonized mice were 5×s.c injected with 225 mg kg-1 with cortisone 21-acetate, following the scheme of injection every other day as described previously (Solis and Filler, 2012). Mice were monitored for weight loss. Following sacrifice, organs and feces were collected for histological examination, flow cytometry and fungal cultivations). If the weight dropped […], mice were sacrificed according to IACUC protocol.
For enumerating the number of recoverable C. albicans and K. weizmannii colony forming units, individual fecal pellets or each tissue from mice was sterilely dissected, weighed, and homogenized in sterile DDW. Serial dilutions on the organ homogenate were spread onto YPD media plates and the number of individual colonies enumerated after incubation at 37° C. for 24 hours.
Mice were euthanized and intestines, kidneys and tongue were excised and fixed overnight in 4% paraformaldehyde at 4° C. Paraffin embedding and sectioning was performed by the institutional histology unit. For immunohistochemistry of gut samples, slides were deparaffinized by 2 washes of Xylene followed by 100%, 96%, 70% EtOH and three washes with PBS. Slides were incubated for 30 minutes in 1% hydrogen peroxide in PBS at room temperature in the dark. After washing three times in PBS, slides were boiled for 10 minutes in Citric acid buffer pH 6.0 (10 mM citric acid and 0.05% Tween-20 in DDW), then washed with PBS three times. Next, slides were blocked in BP buffer (0.3% Triton X-100, 2% horse serum and 1% bovine serum albumin in PBS) for 1 h, then incubated overnight at 4° C. with a 1:200 dilution of the primary antibody (anti-Candida) in BP buffer. […] For histopathology of typical tongue or kidney fungal lesions in the mouse model of immunosuppression, paraffin sections were stained with periodic acid-Schiff (PAS) or H&E and slides were captured using a Panoramic SCAN II (3DHISTECH) and analyzed using CaseViewer software (3DHISTECH).

Kazachstania weizmannii [K. weizmannii]
abundance of blood granulocytes and monocytes [1]: no significantly altered abundance of granulocytes, classical or non-classical monocytes | polarization of fungus-reactive T cells (CD4+ T cells in PBMCs): of the Th1 type | C. albicans in feces of colonized animals (C. albicans; Kazachstania-supplemented drinking water prior to immunosuppression): efficiently expelled C. albicans from colonized animals | weight loss and systemic yeast spread (kidney colonization) (C. albicans; immunosuppressed C. albicans-colonized animals exposed to K. weizmannii): significantly delayed the weight loss and systemic yeast spread | durability of protection (C. albicans; prolonged immunosuppressive treatment): not permanently protected

— US20250092353A1, “COMMENSAL FUNGUS AND USES THEREOF” (YEDA RESEARCH AND DEVELOPMENT CO. LTD., priority 2022, published 2025)
